# Results reported in publication PMC5116089, “Sulfheme formation during homocysteine S-oxygenation by catalase in cancers and neurodegenerative diseases” (Nature Communications, 2016).
# Target: T1, Bovine liver catalase (Bos taurus, UniProt P00432)
# T1 construct: Bovine liver catalase was also purchased from Sigma-Aldrich; purchased Sigma-Aldrich; host or cells: bovine liver
# T1 sequence (P00432 2-527 limits assumed): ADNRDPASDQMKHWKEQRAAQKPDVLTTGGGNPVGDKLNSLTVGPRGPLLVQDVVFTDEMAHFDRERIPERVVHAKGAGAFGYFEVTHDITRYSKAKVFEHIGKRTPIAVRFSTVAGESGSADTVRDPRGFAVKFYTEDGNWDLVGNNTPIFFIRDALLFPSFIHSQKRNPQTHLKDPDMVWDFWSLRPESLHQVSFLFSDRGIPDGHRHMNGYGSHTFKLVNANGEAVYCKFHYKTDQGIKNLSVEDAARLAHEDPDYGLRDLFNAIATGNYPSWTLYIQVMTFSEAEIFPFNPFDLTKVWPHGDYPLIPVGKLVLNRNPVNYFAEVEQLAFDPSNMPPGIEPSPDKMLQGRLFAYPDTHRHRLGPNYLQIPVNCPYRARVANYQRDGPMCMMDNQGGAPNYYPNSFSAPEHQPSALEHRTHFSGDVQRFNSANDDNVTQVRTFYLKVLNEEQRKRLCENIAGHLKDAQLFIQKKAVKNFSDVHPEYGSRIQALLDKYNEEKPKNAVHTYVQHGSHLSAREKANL
# Assay: Ultraviolet-visible spectral changes and HPLC-MS of extracted heme after reaction of CAT with thiols
# Type: biochemical
# Method: Ultraviolet–visible spectra were recorded on a Cary 300 Scan or an Uvikon 941 spectrophotometer equipped with a temperature equilibrating water bath (±1 °C). Spectral changes over time were recorded when CAT was incubated with L-HCys (0.2 or 2 mM), L-Cys (0.2, 2 or 9 mM) or GSH (1 or 30 mM) at 25 °C in a 1 ml quartz cuvette containing a solution of CAT (2.7–5.9 μM) in 50 mM KPi, pH 7.4±1 mM DTPA. Due to half-site reactivity of biological thiols with CAT, the data were recorded versus a blank containing half the concentrations of CAT used in the experiments, that is, a solution of 1.35–2.95 μM CAT in 50 mM KPi at pH 7.4±1 mM DTPA. Reactions were initiated by addition of the thiol-containing compounds. Comparative kinetic studies were performed by incubating CAT ([…] in the experiment, 1.35–1.5 μM in the blank) with 2 mM L-HCys in 50 mM KPi, pH 7.4, 1 mM DTPA with or without […], 5,5-dimethyl-1,3-cyclohexanedione (dimedone, 4 mM), BCN (0.1 mM) or SOD, 40 U). All the experiments were performed at least in duplicate.
# HPLC–MS or –HRMS spectra of the prosthetic heme-iron group were recorded on a Thermo-Finnigan Surveyor or a Thermos Fisher Accela equipped with an XTerra MS C18 3.5 μm (2.1 × 50 mm) and a pre-guard column coupled to an ESI LCQ Advantage or an Exactive orbitrap spectrometer, respectively. The prosthetic heme group was extracted on ice by incubating a solution of CAT (5–8 μM) with 1.65 volume of 50 mM Gly-HCl pH 2.0 and 2.65 vol of butan-2-one kept a −20 °C. After vigorous mixing and a short centrifugation step (13,000 r.p.m., 4 °C, 30 s), the upper organic phase was quickly removed and mixed with a solution of 2 M imidazole (10% v/v) to stabilize the extracted cofactor and permit analysis. […] Control experiments (CAT, thiol-compounds and additives alone as well CAT and additives or thiol-compounds and additives) were performed in each instance and analysed in parallel.
smiles,measurement,setting,value
"NC(CCS)C(=O)O (stereo not drawn) [HCys, homocysteine]",heme-iron species formed from CAT,"2 mM HCys, 1 mM DTPA, pH 7.4, 25 °C",induces the production of a sulfheme species
"N[C@@H](CS)C(=O)O [Cys, cysteine]",heme-iron species formed from CAT,"physiological concentration of Cys (200 μM) in the presence of iron, no DTPA",only leads to the reversible formation of compound II
"N[C@@H](CCC(=O)N[C@@H](CS)C(=O)NCC(=O)O)C(=O)O [GSH, glutathione]",heme-iron species formed from CAT,GSH (30 mM),compound II formation was only observed
